Experimental data: patent US20090252708A1, “Biotherapeutic compositions comprising probiotic escherichia coli and uses thereof” (Biobalance LLC, priority 2006, published 2009)

Columns and labels:
[1] = after single, intravenous infusion; cited from earlier work
IFN-γ = experiment: Colonic cytokine ELISA in DSS colitis: IFN-γ; assay type: in vivo, C57BL/6 mice; details: day 13, M-17 5×10^9 CFU/ml, metronidazole 40 mg/kg
Procedure: (§1) On day 13 of the study, animals were euthanized by exposure to carbon dioxide. The colon was rapidly removed and the total colon length was determined to the nearest 0.1 cm. Typically, a 2.5 cm segment of distal colon was fixed in 10% buffered formalin, for a subsequent histological evaluation (see below). The adjacent 2.5 cm segment of colon was weighed and then frozen in liquid nitrogen. This segment of colon was used for the evaluation of colonic MPO, as well as colonic cytokine levels.
(§2) The supernatant fraction from the colonic homogenate (see above) was aliquoted into appropriate test tubes and frozen at −70° C. Subsequently, the supernatants were used to measure relevant pro-inflammatory cytokines [e.g., IFN-γ, IL-1β, TNF-α, IL-12] using commercially available mouse ELISA kits (Fitzpatrick 2000). The data was typically expressed as pg/2.5 cm of colon.

IL-10 = experiment: Colonic cytokine ELISA in DSS colitis: IL-10; assay type: in vivo, C57BL/6 mice; details: day 13, M-17 5×10^9 CFU/ml, metronidazole 40 mg/kg
Procedure: as §1, §2

IL-6 = experiment: Colonic cytokine ELISA in DSS colitis: IL-6; assay type: in vivo, C57BL/6 mice; details: day 13, M-17 5×10^9 CFU/ml, metronidazole 40 mg/kg
Procedure: as §1, §2

[2] = system: individual isolates of the aerobic and facultative gram positive and gram negative flora; experiment: Metronidazole ex vivo on fecal isolates; assay type: cell-based; details: ex vivo at 50 μg/ml
colonic MPO = experiment: Colonic myeloperoxidase (TMB method) in DSS colitis; assay type: in vivo, C57BL/6 mice; details: day 13, M-17 5×10^9 CFU/ml, metronidazole 40 mg/kg
Procedure: as §1
The 2.5 segment of colon was homogenized for about 30 seconds in 0.5 ml of molecular biology grade distilled water, using a hand-held tissue homogenizer (TissueMiser) from Fisher Scientific (Pittsburgh, Pa.). The homogenate was then centrifuged at 10,000 RPM at 4° C. for 15 minutes. The pellet was resuspended in hexadecyltrimethylammonium bromide (HTAB) buffer (pH 6.0), for the measurement of colonic MPO. MPO was assayed by the tetramethylbenzidine (TMB) method (Fitzpatrick, 2000).

E. coli ATCC 202226 = experiment: Kirby-Bauer disc diffusion; assay type: cell-based, Escherichia coli; details: 50 μg metronidazole paper disc, Mueller-Hinton Agar, overnight
Procedure: The Kirby-Bauer disc diffusion method was used to determine the relative sensitivity of E. coli ATCC 202226 to metronidazole (Bauer, 1966). Five colonies of E. coli ATCC 202226 were picked from trypticase soy agar (TSA) using a sterile inoculation loop and suspended in trypticase soy broth (TSB). The TSB culture was grown for 6 hours at 37° C./200 rpm. This culture was diluted in TSB to match a 0.5 McFarland turbidity standard prior to saturating a sterile cotton swab and streaking the culture onto the surface of a Mueller-Hinton Agar plate. After allowing the surface of the plate to dry, a 50 μg metronidazole paper disc (Oxoid) was placed on the lawn. The plate was incubated overnight and the zone of inhibition was recorded.

TNF-α, IL-1β and IL-6 = experiment: RAW 264.7 macrophages: cytokine secretion, cytokines not told apart; assay type: cell-based, mouse; details: metronidazole 50 μg/ml; heat-killed M-17 1×10^8 CFU/ml; conditioned media 10% (v/v)
Procedure: The RAW 264.7 mouse macrophage cell line was obtained from American Type Culture Collection (ATCC). RAW 264.7 cells were grown in Dulbecco's Modified Eagle's Medium (DMEM) containing 10% FBS (Fetal Bovine Serum). The lipopolysaccharide (LPS) stimulation studies were conducted at a cell density of 2×10^6/ml. […] For the NF-κB p65 measurement, nuclear extracts were obtained from cells either immediately (0 hours) or 3 hours after LPS-stimulation. A protein determination of the nuclear extracts was done with the Bio-Rad protein assay (Bio-Rad Laboratories). For the p65 analysis, 10 μg of protein was utilized per sample. The nuclear binding of p65 was measured with the TransAM™ NF-κB p65 assay kit, according to the manufacturer's instructions.
For the cytokine secretion experiments, after 0 or 4 hours of LPS exposure, the culture medium was collected for the measurement of cytokines (TNF-α, IL-1β and IL-6) by ELISA (Pierce-Endogen), according to the manufacturer's directions. […] The media was then collected and centrifuged at 10,000 RPM for 10 minutes. Next, the CM was passed through a 0.22 micron filter prior to use in cytokine secretion experiments. […] The pellet was then resuspended in a sufficient quantity of saline to achieve a final concentration of 1×10^8 CFU/ml. […] In some experiments, we also evaluated whether metronidazole ([…]) could inhibit cytokine secretion.

IL-1β = experiment: Colonic cytokine ELISA in DSS colitis: IL-1β; assay type: in vivo, C57BL/6 mice; details: day 13, M-17 5×10^9 CFU/ml, metronidazole 40 mg/kg
Procedure: as §1, §2

[3] = system: distal colon histological damage; experiment: Colonic histology score in DSS colitis; assay type: in vivo, C57BL/6 mice; details: day 13, M-17 5×10^9 CFU/ml, metronidazole 40 mg/kg
Procedure: Distal colonic specimens were processed by standard methods and embedded in paraffin by the Histology core facility at the Penn State University College of Medicine. Microscope slides were coded. Using coded hematoxylin-eosin H&E slides (1 slide per mouse) from the distal colon, colonic histology scores were determined from six different areas on the slide (Williams, 2001; Krieglstein, 2001). A mean total histology score value was calculated for each mouse.
Total Histology Scores were determined by multiplying the percent involvement for each of the 3 different histological features by the area of involvement. Using this scoring system, the minimal score=0 and the maximal score=40. The percent involvement was determined with a 25 mm ocular grid attached to an Olympus CH light microscope. The histological evaluation was performed at a 400× magnification.

IL-12 = experiment: Colonic cytokine ELISA in DSS colitis: IL-12; assay type: in vivo, C57BL/6 mice; details: day 13, M-17 5×10^9 CFU/ml, metronidazole 40 mg/kg
Procedure: as §1, §2

DSS-induced colitis = experiment: Acute DSS-induced colitis in mice: DAI, body weight, stools, colon length and weight, tolerability; assay type: in vivo, C57BL/6 mice; details: for DAI (table title: DAT Time Course Data): DSS days 7-13; for mice with weight loss: weight loss defined as >1%
Procedure: Mice were dosed once daily for a period of 13 days by oro-gastric gavage with a 20 gauge, one-inch long needle (Popper & Sons, New Hyde Park, N.Y.). Dosages comprised either 40 mg/kg dose of metronidazole or 5×10^9 CFU/ml probiotic solution. A 0.6% saline solution was administered as a control.
Disease Activity Indices (DAIs) were determined either daily or on alternate days, by evaluation of stool consistency and occult blood in the stool and weight loss on a standardized severity scale, as shown in Table 1 (Murthy, 1993).
Disease Activity Index (DAI) Calculation: The individual scores for weight loss, stool consistency, and occult blood/bleeding are determined, and divided by 3 to determine a mean DAI for the mouse. For example, if an animal lost 12% of the initial body weight [score=3], had evidence of diarrhea [score=4], and evidence of gross rectal bleeding [score=4], the mean DAI would be 3±4±4=11/3=3.7
In Example 3, weight loss was not very evident in the DSS-treated mice. Therefore, a modified DAI calculation was used. The modfied DAIs were calculated similarly to the DAIs of Table 1, but only the stool consistency and occult blood components were used for this determination.
Colitis was then induced by providing the mice with a solution of 2% DSS (w/v) dissolved in the filtered water for days 7 to 13 of the study. One group of mice received water without DSS. Water consumption and body weight were recorded throughout the study.
as §1
Control mice received 0.6% saline.

[4] = day 13, M-17 5×10^9 CFU/ml, metronidazole 40 mg/kg, DSS

SMILES: Cc1ncc([N+](=O)[O-])n1CCO [metronidazole, 1-(beta-hydroxyethyl)-2-methyl-5-nitroimidazole]
- half-life [1]: 7.3 ± 1.0 h
- IFN-γ (IFN-γ): 56 ± 28 pg/2.5 cm
- IL-10 (IL-10): 91 ± 7 pg/2.5 cm
- IL-6 (IL-6): 372 ± 75 pg/2.5 cm
- inhibition of individual isolates [2]: did not inhibit
- MPO (colonic MPO): 4.3 ± 1.0 U/2.5 cm
- zone of inhibition (E. coli ATCC 202226): No zone of inhibition
- LPS-stimulated cytokine secretion (TNF-α, IL-1β and IL-6): did not reduce
- IL-1β (IL-1β): 359 ± 85 pg/2.5 cm
- Histology Score (0-40) [3]: 12.4 ± 0.9
- IL-12 (IL-12): 32 ± 2 pg/2.5 cm
- reduction in mean DAI score compared with DSS-treated mice that received vehicle (DSS-induced colitis; day 13, M-17 5×10^9 CFU/ml, metronidazole 40 mg/kg): 47.4%
- Colon length (DSS-induced colitis; [4]): 6.8±0.2 cm
- Colon wt. (DSS-induced colitis; [4]): 70 ± 3 mg/2.5 cm
- Colon length (DSS-induced colitis; day 13, M-17 5×10^9 CFU/ml, metronidazole 40 mg/kg, DSS, listed as Metro): 6.8 ± 0.2 cm
- Modified DAI (0-4) (DSS-induced colitis; day 13, stool consistency and occult blood only, M-17 5×10^9 CFU/ml, metronidazole 40 mg/kg): 1.0 ± 0.2
- DAI (table title: DAT Time Course Data) (DSS-induced colitis; study day 0, M-17 5×10^9 CFU/ml, metronidazole 40 mg/kg): 0 ± 0
- DAI (table title: DAT Time Course Data) (DSS-induced colitis; study day 2, M-17 5×10^9 CFU/ml, metronidazole 40 mg/kg): 0 ± 0
- DAI (table title: DAT Time Course Data) (DSS-induced colitis; study day 4, M-17 5×10^9 CFU/ml, metronidazole 40 mg/kg): 0.3 ± 0.2
- DAI (table title: DAT Time Course Data) (DSS-induced colitis; study day 6, M-17 5×10^9 CFU/ml, metronidazole 40 mg/kg): 0.2 ± 0.1
- DAI (table title: DAT Time Course Data) (DSS-induced colitis; study day 8, M-17 5×10^9 CFU/ml, metronidazole 40 mg/kg): 0.1 ± 0.1
- DAI (table title: DAT Time Course Data) (DSS-induced colitis; study day 10, M-17 5×10^9 CFU/ml, metronidazole 40 mg/kg): 0.7 ± 0.2
- DAI (table title: DAT Time Course Data) (DSS-induced colitis; study day 12, M-17 5×10^9 CFU/ml, metronidazole 40 mg/kg): 0.6 ± 0.2\
- DAI (table title: DAT Time Course Data) (DSS-induced colitis; study day 13, M-17 5×10^9 CFU/ml, metronidazole 40 mg/kg): 1.0 ± 0.2\
- mice with weight loss (DSS-induced colitis; DSS-phase (days 7-13)): 30%
- mice with weight loss (DSS-induced colitis; figures given before those of the DSS-phase): 50%
